Values after ≈ are worked out from the molar mass of the structure shown.
How the values were obtained:
[1] = biological target: T1, Carnitine O-palmitoyltransferase 1, muscle isoform (Homo sapiens, UniProt Q92523); experiment: SUPPLEMENTARY: Inhibition of Carnitine palmitoyltransferase 1, muscle isoform; set-up: species or system Muscle tissue
T1 sequence (Q92523 whole entry): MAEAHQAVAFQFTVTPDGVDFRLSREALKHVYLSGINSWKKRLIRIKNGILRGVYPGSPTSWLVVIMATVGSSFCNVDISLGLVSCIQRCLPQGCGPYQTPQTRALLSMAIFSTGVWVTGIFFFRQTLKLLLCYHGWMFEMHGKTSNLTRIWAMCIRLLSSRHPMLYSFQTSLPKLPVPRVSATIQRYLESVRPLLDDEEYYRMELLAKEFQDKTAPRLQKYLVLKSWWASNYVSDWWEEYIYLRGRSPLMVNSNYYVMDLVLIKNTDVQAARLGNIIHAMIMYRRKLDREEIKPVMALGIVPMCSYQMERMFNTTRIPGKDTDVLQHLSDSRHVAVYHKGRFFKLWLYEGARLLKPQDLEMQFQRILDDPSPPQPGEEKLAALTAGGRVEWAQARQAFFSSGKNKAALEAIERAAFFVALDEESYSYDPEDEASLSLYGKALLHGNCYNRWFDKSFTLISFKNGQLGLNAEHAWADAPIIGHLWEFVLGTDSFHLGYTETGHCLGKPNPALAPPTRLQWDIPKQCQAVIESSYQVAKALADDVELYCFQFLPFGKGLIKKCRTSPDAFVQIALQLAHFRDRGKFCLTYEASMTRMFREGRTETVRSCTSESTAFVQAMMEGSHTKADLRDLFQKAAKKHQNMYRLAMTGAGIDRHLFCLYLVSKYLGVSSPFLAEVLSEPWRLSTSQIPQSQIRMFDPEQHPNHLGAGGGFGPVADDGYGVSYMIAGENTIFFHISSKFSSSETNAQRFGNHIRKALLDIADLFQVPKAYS

[2] = biological target: T2, Carnitine O-palmitoyltransferase 2, mitochondrial (Homo sapiens, UniProt P23786); experiment: (§1) SUPPLEMENTARY: Inhibition of Carnitine palmitoyltransferase 2
T2 sequence (P23786 whole entry): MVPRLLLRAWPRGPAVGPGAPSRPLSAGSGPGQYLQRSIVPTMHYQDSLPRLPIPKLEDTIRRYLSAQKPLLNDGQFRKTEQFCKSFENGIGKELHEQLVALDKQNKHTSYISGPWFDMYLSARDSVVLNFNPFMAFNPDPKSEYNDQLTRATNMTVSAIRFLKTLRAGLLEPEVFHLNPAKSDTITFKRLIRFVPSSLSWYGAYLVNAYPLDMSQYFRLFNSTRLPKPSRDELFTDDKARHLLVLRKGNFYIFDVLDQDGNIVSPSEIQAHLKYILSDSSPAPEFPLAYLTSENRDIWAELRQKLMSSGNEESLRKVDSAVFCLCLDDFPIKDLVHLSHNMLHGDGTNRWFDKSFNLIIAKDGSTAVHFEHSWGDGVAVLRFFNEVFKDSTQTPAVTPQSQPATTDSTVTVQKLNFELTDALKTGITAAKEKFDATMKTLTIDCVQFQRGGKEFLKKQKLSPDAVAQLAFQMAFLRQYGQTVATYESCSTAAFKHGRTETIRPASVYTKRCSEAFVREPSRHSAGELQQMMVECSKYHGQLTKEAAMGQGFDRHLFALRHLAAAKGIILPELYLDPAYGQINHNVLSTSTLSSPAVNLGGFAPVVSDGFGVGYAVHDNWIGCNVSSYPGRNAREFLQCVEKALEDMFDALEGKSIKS

[3] = biological target: T3, Carnitine O-palmitoyltransferase 2, mitochondrial (Rattus norvegicus, UniProt P18886); experiment: as §1
T3 sequence (P18886 whole entry): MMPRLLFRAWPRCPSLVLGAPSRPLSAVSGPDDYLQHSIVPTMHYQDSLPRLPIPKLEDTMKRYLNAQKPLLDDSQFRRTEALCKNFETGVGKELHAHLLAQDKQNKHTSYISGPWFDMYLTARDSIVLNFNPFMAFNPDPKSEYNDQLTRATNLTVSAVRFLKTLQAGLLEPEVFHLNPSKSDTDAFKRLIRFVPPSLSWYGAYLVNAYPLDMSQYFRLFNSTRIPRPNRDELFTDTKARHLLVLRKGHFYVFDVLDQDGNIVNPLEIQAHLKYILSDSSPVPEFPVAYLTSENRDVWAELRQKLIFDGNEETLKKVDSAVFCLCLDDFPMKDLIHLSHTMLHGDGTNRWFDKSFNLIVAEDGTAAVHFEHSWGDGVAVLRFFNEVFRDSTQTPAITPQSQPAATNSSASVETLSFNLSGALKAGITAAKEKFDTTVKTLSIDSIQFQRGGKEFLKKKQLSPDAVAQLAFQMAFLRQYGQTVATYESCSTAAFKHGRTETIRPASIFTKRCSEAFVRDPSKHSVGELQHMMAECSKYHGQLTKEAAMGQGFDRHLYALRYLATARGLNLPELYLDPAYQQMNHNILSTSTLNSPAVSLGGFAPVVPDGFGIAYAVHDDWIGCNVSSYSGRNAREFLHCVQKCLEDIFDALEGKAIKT

[4] = biological target: T4, Carnitine O-palmitoyltransferase 1, liver isoform (Homo sapiens, UniProt P50416); experiment: (§2) SUPPLEMENTARY: Inhibition of Carnitine palmitoyltransferase 1, liver isoform
T4 sequence (P50416 whole entry): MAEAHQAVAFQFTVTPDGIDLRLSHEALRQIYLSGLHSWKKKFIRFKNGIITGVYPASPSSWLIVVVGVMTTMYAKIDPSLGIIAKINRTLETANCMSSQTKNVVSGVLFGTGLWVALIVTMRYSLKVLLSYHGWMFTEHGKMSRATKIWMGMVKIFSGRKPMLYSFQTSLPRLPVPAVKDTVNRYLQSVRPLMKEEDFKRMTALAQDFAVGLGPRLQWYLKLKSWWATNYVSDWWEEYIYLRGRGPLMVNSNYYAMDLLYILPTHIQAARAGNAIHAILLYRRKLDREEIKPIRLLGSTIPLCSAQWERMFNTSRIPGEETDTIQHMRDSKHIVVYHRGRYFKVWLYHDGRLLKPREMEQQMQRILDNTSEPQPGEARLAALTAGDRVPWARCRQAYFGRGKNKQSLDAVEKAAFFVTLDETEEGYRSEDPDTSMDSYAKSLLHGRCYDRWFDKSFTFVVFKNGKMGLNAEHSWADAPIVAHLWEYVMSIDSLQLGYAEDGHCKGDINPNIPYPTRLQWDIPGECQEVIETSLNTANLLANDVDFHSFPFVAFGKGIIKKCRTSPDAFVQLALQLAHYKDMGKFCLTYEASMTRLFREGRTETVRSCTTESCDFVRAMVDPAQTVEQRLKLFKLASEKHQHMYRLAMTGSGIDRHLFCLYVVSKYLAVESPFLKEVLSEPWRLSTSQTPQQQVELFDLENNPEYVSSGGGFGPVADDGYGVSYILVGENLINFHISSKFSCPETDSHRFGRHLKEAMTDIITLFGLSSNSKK

[5] = biological target: T5, Carnitine O-palmitoyltransferase 1, liver isoform (Rattus norvegicus, UniProt P32198); experiment: as §2
T5 sequence (P32198 whole entry): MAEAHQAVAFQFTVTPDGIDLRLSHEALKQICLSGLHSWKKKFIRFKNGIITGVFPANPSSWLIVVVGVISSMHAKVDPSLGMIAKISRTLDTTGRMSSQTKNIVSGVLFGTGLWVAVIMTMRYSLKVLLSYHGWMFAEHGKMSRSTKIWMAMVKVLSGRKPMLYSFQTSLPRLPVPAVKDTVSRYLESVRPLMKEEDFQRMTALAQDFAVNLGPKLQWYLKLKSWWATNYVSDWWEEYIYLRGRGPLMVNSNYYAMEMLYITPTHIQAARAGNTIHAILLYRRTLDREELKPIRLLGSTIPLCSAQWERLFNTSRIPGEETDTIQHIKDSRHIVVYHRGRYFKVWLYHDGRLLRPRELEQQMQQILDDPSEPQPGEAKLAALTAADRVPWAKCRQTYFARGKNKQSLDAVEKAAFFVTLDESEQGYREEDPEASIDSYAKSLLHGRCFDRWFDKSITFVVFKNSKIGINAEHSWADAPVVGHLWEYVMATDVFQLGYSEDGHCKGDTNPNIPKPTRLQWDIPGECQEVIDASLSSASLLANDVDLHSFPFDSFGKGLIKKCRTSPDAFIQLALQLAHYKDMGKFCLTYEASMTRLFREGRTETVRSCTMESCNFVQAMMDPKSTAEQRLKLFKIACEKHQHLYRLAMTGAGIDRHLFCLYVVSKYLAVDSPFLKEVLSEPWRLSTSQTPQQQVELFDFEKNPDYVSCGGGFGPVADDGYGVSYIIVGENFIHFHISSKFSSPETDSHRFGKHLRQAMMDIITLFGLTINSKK

[6] = SUPPLEMENTARY: Lyophilisation Solubility Assay (LYSA); format: physicochemical; conditions: read-out: Kinetic_solubility
[7] = SUPPLEMENTARY: Lipophilicity (log D) Determination by high-throughput shake-flask; format: physicochemical; conditions: octanol/water
[8] = SUPPLEMENTARY: PAMPA permeability assay; format: physicochemical; conditions: read-out: Permeability

Row | Compound | IC50 [1] [µM] | IC50 [2] [µM] | IC50 [3] [µM] | IC50 [4] [nM] | IC50 [5] [nM] | solubility kinetic [6] [µg/mL] | logD [7] | Papp [8] [×10⁻⁶ cm/s]
1 | Cn1cnc(Br)c1-c1noc([C@H]2CCCCN2C(=O)COc2ccccc2)n1 | > 100 | 40.5 | > 100 | 79.3 | 250 | 83 (≈ 186 µM) | 2.68 | 5.6
2 | CC(=O)Nc1cc(-c2nc([C@H]3CCCCN3C(=O)COc3ccccc3)no2)ccn1 | > 100 | > 100 | > 100 | 50.9 | 327 | 113 (≈ 268 µM) | 2.54 | 5.4
3 | O=C([C@H]1CCCCN1C(=O)COc1ccccc1)N1Cc2ccc(C3CCOC3)cc2C1 (some centres undefined) | > 100 | 0.473 | 0.701 | 63.5 | 77.2 | 46 (≈ 106 µM) | 2.72 | 4.71
4 | Nc1cc(-c2n[nH]c([C@H]3CCCCN3C(=O)COc3ccccc3)n2)ccn1 | > 100 | > 100 | > 100 | 123 | 1330 | 281 (≈ 743 µM) | 1.95 | 2.77

Second part, the molecule after the results:

Row | IC50 [1] [µM] | IC50 [2] [µM] | IC50 [3] [µM] | IC50 [4] [nM] | IC50 [5] [nM] | solubility kinetic [6] [µg/mL] | logD [7] | Papp [8] [×10⁻⁶ cm/s] | Compound
5 | > 100 | 2.06 | 3.7 | 252 | 596 | 22 (≈ 58.1 µM) | 2.97 | 4.18 | O=C([C@H]1CCCCN1C(=O)COc1ccccc1)N1CCc2ccccc2C1
6 | 1.74 | 4.45 | 37.4 | 102 | 61.3 | 13 (≈ 22.8 µM) | -0.27 | 0.21 | COc1ccc(Cl)cc1S(=O)(=O)N1CCS(=O)(=O)c2ccc(C(=O)Nc3ccc(C(=O)O)c(F)c3)cc21
7 | > 100 | > 100 | > 100 | 43.8 | 20.5 | < 1 | 3.4 | 0.06 | COc1ccc(Cl)cc1S(=O)(=O)c1cn(CCO)c2ccc(C(=O)Nc3ccccc3)cc12
8 | 6.79 | > 100 | > 100 | 187 | 133 | 5 (≈ 10.8 µM) | 2.42 | 4.05 | Cc1cc(C)cc(S(=O)(=O)N2CCc3ccc(C(=O)Nc4ccc(CC(=O)O)cc4)cc32)c1

Source: ChEMBL document CHEMBL3431459, “Roche carnitine palmitoyltransferase modulator screening data (supplementary data associated with the publication CHEMBL2216752)”
